Tests used:
[1] = tested on: vascular (aortic) guanylyl cyclase activity; experiment: Prevention of nitrate tolerance: aortic cGMP after continuous NTG infusion, with or without the compounds; format: in vivo, rat; settings: for tolerance development to NTG / NO-donors (result in words): co-administration with nitrates
Protocol: (§1) • a) Acute effects: Rats (Spargue-Dawely) weighing 300-400 g were treated with an intravenous (i.v.) bolus dose of 2 mg nitroglycerin (NTG) before and after pre-treatment with the compounds (50 mg/kg) administered intraperitoneally. Compounds 1 and 2 from FIG. 1, compounds 9 and 10 from FIG. 2, compounds 17 and 18 from FIG. 3, compounds 25 a nd 26 from FIG. 4 were dissolved in a mixture of ethanol:propylene glycol:water (1:1:1) and administered in 1 ml intraperitoneally one hour before NTG administration. One minute after the NTG administration, the rats were sacrificed by decapitation and the aorta was removed quickly, immersed in a phosphate buffer solution containing 20 mM EDTA and immediately frozen in liquid nitrogen add stored at −70° until analyzed. Next day, the tissue were analyzed for their cGMP content. After thawing, tissue were weighed and homogenized in EDTA-phosphate buffer, centrifuged and the super collected into another tube. The pellet was washed with 1 ml buffer, vortex-mixed, centrifuged and the supernatant added to the second tube. 2 ml of acetonitrile were added to the tube containing the combined extracts and the tube vortex-mixed, centrifuged and the supernatant collected to another clean tube. The aqueous-acetonitrile solution in this latter tube was evaporated to dryness and the reside dissolved in assay buffer. The cGMP content of the solution was determined using a radioimmunoassay (RIA-Amersham) as previously reported by us.
Similar significant increases were also obtained when pre-treatment was performed with other compounds (see above). • b) Prevention: Rat were administered a continuos infusion of NTG known to induce tolerance with or without concomitant administration of the compounds (the same tested for the acute effects). The compounds were administered either in continuos i.v. infusion or intraperitoneally in 4 separated doses (q 6 hours). The effects on vascular (aortic) guanylyl cyclase activity was then evaluated as described above for control rats.

[2] = tested on: tissue guanylyl cyclase response to nitrates (aortic cGMP); experiment: Acute effects: aortic cGMP after NTG bolus, with or without pre-treatment with the compounds; format: in vivo, rat
Protocol: as §1, with “The aqueous-acetonitrile solution in this latter tube was evaporated to dryness and the reside dissolved in assay buffer.” left out, “us. […]” for “us.”

Molecule | tolerance development to NTG / NO-donors (result in words) [1] | tissue guanylyl cyclase response to nitrates (result in words) ([2]; pre-treatment or co-administration with nitrate / NO donor) | cGMP ([2]; NTG alone, i.v. bolus 2 mg, aorta removed one minute after NTG) [pmol/g tissue] | cGMP ([1]; NTG-pretreatment: continuous NTG infusion known to induce tolerance, no compound, aorta) [pmol/g tissue]
lipoyl lipoate | prevents/retards tolerance development | – | – | –
O=C(O)CCCCC1CCSS1 (centres unmarked) [LA, 1,2-dithiolane-3-valeric acid] | retards tolerance development | enhances its activity | – | –
O=[N+]([O-])OCC(CO[N+](=O)[O-])O[N+](=O)[O-] [NTG, nitroglycerin] | – | – | 175 ± 13 | 64 ± 9

From patent US6900338B1, “Scavenger compounds” (Yissum Research Development Company of the Hebrew …, priority 1998, dated 2005)
